Laboratory results as given in the NIST ThermoML archive (doi:10.1016/j.jct.2017.03.027).

Key:
[1] = molar heat capacity at constant pressure; xn = mol fraction of the nth substance listed; settings: 100 kPa, Liquid, Large sample (1 g) DSC
[2] = xn = mol fraction of the nth substance listed; settings: 100 kPa, Liquid, Vibrating tube method

Cc1ccc(C(C)C)cc1 [1-(1-methylethyl)-4-methylbenzene] + CCO
Settings | mass density, 298.15 K [kg/m3] | mass density, 308.15 K [kg/m3] | mass density, 318.15 K [kg/m3] | mass density, 328.15 K [kg/m3] | molar heat capacity at constant pressure, 298.6 K [J/K/mol] | molar heat capacity at constant pressure, 308.5 K [J/K/mol] | molar heat capacity at constant pressure, 318.5 K [J/K/mol] | molar heat capacity at constant pressure, 328.4 K [J/K/mol]
[1], x1 = 0.0494 | – | – | – | – | 121.2 | 126.1 | 130.8 | 135.6
[1], x1 = 0.0995 | – | – | – | – | 130 | 134.7 | 140.1 | 145.9
[1], x1 = 0.2 | – | – | – | – | 146.5 | 152.2 | 157.8 | 163.8
[1], x1 = 0.3009 | – | – | – | – | 162.2 | 168.5 | 174.7 | 181
[1], x1 = 0.4037 | – | – | – | – | 177.7 | 183.8 | 190.2 | 197
[1], x1 = 0.5034 | – | – | – | – | 192.6 | 199 | 205.4 | 211.9
[1], x1 = 0.6023 | – | – | – | – | 205.5 | 211.8 | 219.4 | 225.1
[1], x1 = 0.7017 | – | – | – | – | 217.6 | 224.3 | 230.7 | 236.9
[1], x1 = 0.802 | – | – | – | – | 229.2 | 235.3 | 240.9 | 247
[1], x1 = 0.897 | – | – | – | – | 238.6 | 243.1 | 248.4 | 253.8
[1], x1 = 0.9509 | – | – | – | – | 240.2 | 243.9 | 248.9 | 254.1
[1], x1 = 1 | – | – | – | – | 240.3 | 244.7 | 249.4 | 254.4
[2], x1 = 0.0494 | 793.49 | 784.81 | 775.96 | 766.9 | – | – | – | –
[2], x1 = 0.0995 | 800.72 | 792.02 | 783.15 | 774.08 | – | – | – | –
[2], x1 = 0.2 | 812.35 | 803.65 | 794.79 | 785.71 | – | – | – | –
[2], x1 = 0.3009 | 821.26 | 812.6 | 803.77 | 794.75 | – | – | – | –
[2], x1 = 0.4037 | 828.42 | 819.8 | 811.02 | 802.06 | – | – | – | –
[2], x1 = 0.5034 | 834.18 | 825.62 | 816.91 | 808.04 | – | – | – | –
[2], x1 = 0.6023 | 838.73 | 830.22 | 821.58 | 812.79 | – | – | – | –
[2], x1 = 0.7017 | 842.86 | 834.43 | 825.88 | 817.21 | – | – | – | –
[2], x1 = 0.802 | 846.53 | 838.18 | 829.75 | 821.21 | – | – | – | –
[2], x1 = 0.897 | 849.61 | 841.37 | 833.06 | 824.68 | – | – | – | –
[2], x1 = 0.9509 | 851.34 | 843.19 | 834.99 | 826.74 | – | – | – | –
[2], x1 = 1 | 852.93 | 844.89 | 836.81 | 828.69 | – | – | – | –
